# From PMC10326086 (Cancer Chemotherapy and Pharmacology, 2023)
# Where two headings read alike, the source gives them in different places.
# Experiments:
# [1] = system: QTcF interval in patients with advanced solid tumors; conditions: human, in vivo
# Text: Estimates were made of the mean change in QTcF at the geometric mean Cmax on days 1 and 3 from the fitted model, with corresponding 90% two-sided confidence intervals (CIs).
# [2] = Plasma pharmacokinetics of adavosertib
# [3] = system: ECG intervals in patients with advanced solid tumors; conditions: human, in vivo
# Description: (§1) On day − 2, patients underwent dECG to determine eligibility by central review. On day − 1, baseline dECG assessments were performed at clock times matched to the planned/scheduled dECG assessment times on days 1 and 3. […] Doses were administered under fasting conditions (2 h pre-dose to 2 h post-dose), with prescribed anti-emetic(s) given orally 30 min prior to each dose [20].
# (§2) Patients had their final dECG/PK assessments on day 4, 24 h post-dose. Baseline for dECG assessments was defined as the time-matched observation on day − 1. Triplicate dECG recordings were taken within an approximate 5-min period prior to PK sample collection and as close to the scheduled times as possible. Patients rested for ≥ 10 min prior to dECG recording and were in the same supine body position for all recordings. HR and RR, QT, PR, and QRS interval parameters were recorded. Standardized equipment was provided by the central ECG laboratory. Recorded dECGs were sent to the central ECG laboratory for review and interpretation, using their standard operating procedures and with manual adjudication (3 beat on lead II).
# [4] = system: patients with advanced solid tumors; conditions: human, in vivo
# Text: (§3) Safety was appraised throughout the study by the assessment of adverse events (AEs; graded by Common Terminology Criteria for Adverse Events [CTCAE], version 4.03), physical examination, and evaluation of vital signs, ECG, and laboratory data (clinical chemistry and hematology). Dose reductions were not allowed.
# [5] = set-up: method as in doi:10.1158/1538-7445.am2019-ct012; conditions: after 200 mg bid dosing; cited from earlier work
# patients = system: patients; set-up: method as in AstraZeneca, data on file, 2022; conditions: preliminary data; ref AstraZeneca, data on file, 2022; cited from earlier work
# [6] = system: patients with advanced solid tumors; conditions: cited from earlier work
# [7] = system: patients with advanced solid tumors; experiment: Safety and tolerability (adverse events, CTCAE version 4.03); conditions: n = 21
# Text: as §3
# [8] = system: ECG intervals in patients with advanced solid tumors; experiment: Digital 12-lead ECG (dECG) assessments, time-matched change from baseline; conditions: over the treatment period (days 1–3, 24 h post-dose)
# Description: as §1, §2
# QTc interval = conditions: in vivo; cited from earlier work
# [9] = human, in vivo, 225 mg, 2.5 days
smiles,measurement,setting,value
C=CCn1c(=O)c2cnc(Nc3ccc(N4CCN(C)CC4)cc3)nc2n1-c1cccc(C(C)(C)O)n1 [adavosertib],"Day effect estimate, concentration–ΔQTcF model",[1],−1.6
same,"Intercept estimate, concentration–ΔQTcF model",[1],−2.4
same,"Upper limits of predicted 90% CIs for ΔQTcF, sensitivity analysis",[1],< 1.5 ms
same,"CLss/F, arithmetic mean (SD)",[2]; day 3,43.2 L/h
same,"CLss/F, median",[2]; day 3,41.5 L/h
same,"AUC0–12, median","[2]; human, in vivo",5.383 µM·h
same,"Cavg, arithmetic mean (SD)","[2]; human, in vivo",944.8 nM
same,"Cavg, geometric mean","[2]; human, in vivo",901.2 nM
same,"Cavg, median","[2]; human, in vivo",898.9 nM
same,"Cmin, arithmetic mean (SD)","[2]; human, in vivo",517.7 nM
same,"Cmin, geometric mean","[2]; human, in vivo",410.4 nM
same,"Cmin, median","[2]; human, in vivo",499.0 nM
same,Tmax,"[2]; human, in vivo",3 h
same,"tmax, median","[2]; human, in vivo",2.5 h
same,Accumulation for AUC0–12 over 2.5 days of bid dosing,[2]; [9],approximately 2.3 fold
same,Accumulation for Cmax over 2.5 days of bid dosing,[2]; [9],~2.1 fold
same,AUC(0-t),"[2]; human, in vivo, AUC0–12, arithmetic mean (SD)",11.3 µM·h
same,AUC(0-t),"[2]; human, in vivo, AUC0–12, median",10.6 µM·h
same,Cmax,"[2]; human, in vivo, arithmetic mean (SD)",1500 nM
same,Cmax,"[2]; human, in vivo, median",1520 nM
same,AUC(0-t),"[2]; human, in vivo, po, 225 mg, AUC0–12, geometric mean",4.94 µM·h
same,"Mean change in HR, range over time points",[3]; 1 day,− 1.7 to 2.9
same,"Mean change in PR interval, range over time points",[3]; 1 day,− 4.4 to 3.5
same,"Mean change in QRS interval, range over time points",[3]; 1 day,− 1.2 to 1.4
same,"Mean change in RR interval, range over time points",[3]; 1 day,− 38.0 to 22.3
same,Patients with QTcF increase > 60 ms at any time during treatment,[3]; 1 day,0 n (%)
same,Patients with QTcF value > 450 ms and increase > 30 ms,[3]; 1 day,0 n (%)
same,Patients with QTcF value > 450 ms at any time during treatment,[3]; 1 day,0 n (%)
same,Patients with QTcF value > 480 ms at any time during treatment,[3]; 1 day,0 n (%)
same,Patients with QTcF value > 500 ms and increase > 60 ms,[3]; 1 day,0 n (%)
same,Patients with QTcF value > 500 ms at any time during treatment,[3]; 1 day,0 n (%)
same,"Mean change in HR, range over time points",[3]; 3 day,1.4 to 9.5 bpm
same,"Mean change in PR interval, range over time points",[3]; 3 day,− 4.4 to 0.3
same,"Mean change in QRS interval, range over time points",[3]; 3 day,− 1.8 to − 2.0
same,"Mean change in RR interval, range over time points",[3]; 3 day,− 102.5 to − 30.4
same,Patients with QTcF increase > 30 ms at any time during treatment,[3]; 3 day,1 (4.8) n (%)
same,Patients with QTcF increase > 60 ms at any time during treatment,[3]; 3 day,0 n (%)
same,Patients with QTcF value > 450 ms and increase > 30 ms,[3]; 3 day,0 n (%)
same,Patients with QTcF value > 450 ms at any time during treatment,[3]; 3 day,0 n (%)
same,Patients with QTcF value > 480 ms at any time during treatment,[3]; 3 day,0 n (%)
same,Patients with QTcF value > 500 ms and increase > 60 ms,[3]; 3 day,0 n (%)
same,Patients with QTcF value > 500 ms at any time during treatment,[3]; 3 day,0 n (%)
same,Causally related AEs of any grade: Anemia,[4],1 (4.8) Number of patients (%)
same,Causally related AEs of any grade: Constipation,[4],1 (4.8) Number of patients (%)
same,Causally related AEs of any grade: Decreased appetite,[4],1 (4.8) Number of patients (%)
same,Causally related AEs of any grade: Diarrhea,[4],6 (28.6) Number of patients (%)
same,Causally related AEs of any grade: Vomiting,[4],2 (9.5) Number of patients (%)
same,Causally related grade ≥3 AEs: Anemia,[4],1 (4.8) Number of patients (%)
same,Causally related grade ≥3 AEs: Constipation,[4],0 Number of patients (%)
same,Causally related grade ≥3 AEs: Decreased appetite,[4],0 Number of patients (%)
same,Causally related grade ≥3 AEs: Diarrhea,[4],1 (4.8) Number of patients (%)
same,Causally related grade ≥3 AEs: Nausea,[4],1 (4.8) Number of patients (%)
same,Causally related grade ≥3 AEs: Vomiting,[4],1 (4.8) Number of patients (%)
same,Causally related AEs of any grade: Any AE,[4]; 2.5 days,11 (52.4) Number of patients (%)
same,Causally related AEs of any grade: Nausea,[4]; 2.5 days,6 (28.6) Number of patients (%)
same,Causally related grade ≥3 AEs: Any AE,[4]; 2.5 days,2 (9.5) Number of patients (%)
same,Patients who discontinued treatment because of AEs,[4]; 2.5 days,9.5%
same,Patients with AEs,[4]; 2.5 days,76.2%
same,Patients with CTCAE grade 3 anemia,[4]; 2.5 days,4.8%
same,Patients with CTCAE grade 3 diarrhea,[4]; 2.5 days,4.8%
same,Patients with CTCAE grade 3 hypotension,[4]; 2.5 days,4.8%
same,Patients with CTCAE grade 3 nausea,[4]; 2.5 days,4.8%
same,"Patients with a serious AE (vomiting, not considered drug related)",[4]; 2.5 days,4.8%
same,Patients with diarrhea (any causality),[4]; 2.5 days,33.3%
same,Patients with nausea (any causality),[4]; 2.5 days,33.3%
same,Patients with treatment-related AEs,[4]; 2.5 days,52.4%
same,Patients with treatment-related anemia,[4]; 2.5 days,4.8%
same,Patients with treatment-related constipation,[4]; 2.5 days,4.8%
same,Patients with treatment-related decreased appetite,[4]; 2.5 days,4.8%
same,Patients with treatment-related diarrhea,[4]; 2.5 days,28.6%
same,Patients with treatment-related nausea,[4]; 2.5 days,28.6%
same,Patients with treatment-related vomiting,[4]; 2.5 days,9.5%
same,Patients with vomiting (any causality),[4]; 2.5 days,23.8%
same,Total number of treatment-related AEs,[4]; 2.5 days,17
same,AUC0–12,[5],8.1 µM·h
same,Adverse drug reactions to adavosertib monotherapy,patients,include QTc prolongation
same,Dose proportionality of exposure,"[6]; qd dosing, between 200 and 300 mg, single and multiple doses, preliminary",exposure increased more than dose proportionally
same,Maximum tolerated dose,[6]; twice daily (bid) over 2.5 days per week per 21-day cycle,225 mg
same,AEs with an outcome of death,[7],No AEs with an outcome of death
same,Patients with QTcF > 450 ms,[8],No patient
same,Patients with increase in QTcF of > 60 ms,[8],No patient
CN[C@H]1CC[C@@H](c2ccc(Cl)c(Cl)c2)c2ccccc21 [sertraline],Risk of TdP,QTc interval,conditional risk of TdP
